Laboratory results as given in BindingDB's records for doi:10.1021/jm970265x (Glaxo Wellcome Research and Development, 1997).
Values joined by “and” are separate entries in the source; they are usually repeats but may differ in a detail not shown here. Equal values may be shown once.

These compounds were tested against T1, Gastrin/cholecystokinin type B receptor (Homo sapiens, UniProt P32239).
T1 sequence (P32239 whole entry): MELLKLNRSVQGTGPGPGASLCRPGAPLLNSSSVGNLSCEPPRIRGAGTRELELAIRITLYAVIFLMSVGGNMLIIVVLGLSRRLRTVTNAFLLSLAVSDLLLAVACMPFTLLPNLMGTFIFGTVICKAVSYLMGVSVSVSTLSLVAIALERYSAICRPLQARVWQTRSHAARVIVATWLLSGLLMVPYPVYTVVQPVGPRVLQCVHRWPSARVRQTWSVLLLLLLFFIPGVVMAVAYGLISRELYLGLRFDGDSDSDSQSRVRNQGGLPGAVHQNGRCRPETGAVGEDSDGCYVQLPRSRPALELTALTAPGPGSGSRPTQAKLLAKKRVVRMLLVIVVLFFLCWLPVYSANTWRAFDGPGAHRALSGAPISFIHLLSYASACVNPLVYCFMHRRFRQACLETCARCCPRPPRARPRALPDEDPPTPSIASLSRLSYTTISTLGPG

Structure (SMILES) | Ki
COc1ccccc1N(C(=O)CN1C(=O)C(Cc2n[nH]c3ccccc23)C(=O)N(c2ccccc2)c2ccccc21)C(C)C (stereo not drawn) [CCK-A Agonist 41] | 0.129 µM
CC(C)(C)N(C(=O)CN1C(=O)C(Cc2n[nH]c3ccccc23)C(=O)N(c2ccccc2)c2ccccc21)c1ccccc1 (stereo not drawn) [CCK-A Agonist 45] | 0.891 µM
CC(C)N(C(=O)CN1C(=O)C(Cc2n[nH]c3ccccc23)C(=O)N(c2ccccc2)c2ccccc21)c1ccc2c(c1)OCO2 (stereo not drawn) [CCK-A Agonist 42] | 0.724 µM
CC(C)N(C(=O)CN1C(=O)C(Cc2n[nH]c3ccccc23)C(=O)N(c2ccccc2)c2ccccc21)c1ccc(C(F)(F)F)cc1 (stereo not drawn) [CCK-A Agonist 39] | 1.66 µM
CC(C)N(C(=O)CN1C(=O)C(Cc2n[nH]c3ccccc23)C(=O)N(c2ccccc2)c2ccccc21)c1ccccc1 (stereo not drawn) [CCK-A Agonist 37] | 0.0871 µM and 0.178 µM
CC(C)N(C(=O)CN1C(=O)C(Cc2n[nH]c3ccccc23)C(=O)N(c2ccccc2)c2ccccc21)c1ccc(F)cc1 (stereo not drawn) [CCK-A Agonist 38] | 0.138 µM and 0.479 µM
COc1ccc(N(C(=O)CN2C(=O)C(Cc3n[nH]c4c(F)cccc34)C(=O)N(c3ccccc3)c3ccccc32)C(C)C)cc1 (stereo not drawn) [CCK-A Agonist 34] | 1.05 µM
COc1cccc(N(C(=O)CN2C(=O)C(Cc3n[nH]c4ccccc34)C(=O)N(c3ccccc3)c3ccccc32)C(C)C)c1 (stereo not drawn) [CCK-A Agonist 40] | 0.479 µM and 0.191 µM
